According to patent EP4574819A1, “DIAZINONE COMPOUNDS FOR THE CONTROL OF INVERTEBRATE PESTS” (priority 2023, dated 2025):

Columns and labels:
Type in all cases: in vivo
[1] = system: Boll weevil (Anthonomus grandis); experiment: Boll weevil (Anthonomus grandis) egg/larval mortality on sprayed insect diet in 96-well microtiter plates; details: 2500 ppm; egg and larval mortality after 5 days; in comparison with untreated controls
Method: B.2 Boll weevil (Anthonomus grandis)
For evaluating control of boll weevil (Anthonomus grandis) the test unit consists of 96-well-microtiter plates containing an insect diet and 5-10 A. grandis eggs.
The compounds are formulated using a solution containing 75% v/v water and 25% v/v DMSO. Different concentrations of formulated compounds are sprayed onto the insect diet at 5µl, using a custom-built micro atomizer, at two replications.
After application, microtiter plates are incubated at about 25 ± 1°C and about 75 ± 5 % relative humidity for 5 days. Egg and larval mortality is then visually assessed.

[2] = system: Diamond back moth (Plutella xylostella); experiment: Diamond back moth (Plutella xylostella) cabbage leaf dip test; details: 3rd instar larvae, 72 hours after treatment, in comparison with untreated controls
Method: B.3 Diamond back moth (Plutella xylostella)
The active compound was dissolved at the desired concentration in a mixture of 1:1 (vol:vol) distilled water: acetone. Surfactant (Kinetic HV) was added at a rate of 0.01% (vol/vol). The test solution was prepared on the day of use.
Leaves of cabbage were dipped in test solution and air-dried. Treated leaves were placed in petri dishes lined with moist filter paper and inoculated with ten 3rd instar larvae. Mortality was recorded 72 hours after treatment. Feeding damages were also recorded using a scale of 0-100%.

[3] = system: Yellow fever mosquito (Aedes aegypti); experiment: whole plant or invertebrate; details: larval mortality after 2 days, in comparison with untreated controls
Method: B.4 Yellow fever mosquito (Aedes aegypti)
For evaluating control of yellow fever mosquito (Aedes aegypti) the test unit consists of 96-well-microtiter plates containing 200µl of tap water per well and 5-15 freshly hatched A. aegypti larvae.
The active compounds are formulated using a solution containing 75% (v/v) water and 25% (v/v) DMSO. Different concentrations of formulated compounds or mixtures are sprayed onto the insect diet at 2.5µl, using a custom-built micro atomizer, at two replications.
After application, microtiter plates are incubated at 28±1°C, 80±5 % RH for 2 days. Larval mortality is then visually assessed.

[4] = system: Green peach aphid (Myzus persicae); experiment: Green peach aphid (Myzus persicae) systemic test, artificial diet under artificial membrane; details: adult aphids, 3 days, in comparison with untreated controls
Description: B.5 Green peach aphid (Myzus persicae)
For evaluating control of green peach aphid (Myzus persicae) through systemic means, the test unit consisted of 96-well-microtiter plates containing liquid artificial diet under an artificial membrane.
The compounds were formulated using a solution containing 75% v/v water and 25% v/v DMSO. Different concentrations of formulated compounds were pipetted into the aphid diet, using a custom built pipetter, at two replications.
After application, 5 - 8 adult aphids were placed on the artificial membrane inside the microtiter plate wells. The aphids were then allowed to suck on the treated aphid diet and incubated at about 23 ± 1°C and about 50 ± 5 % relative humidity for 3 days. Aphid mortality and fecundity was then visually assessed.

[5] = system: Tobacco budworm (Heliothis virescens); experiment: Tobacco budworm (Heliothis virescens) egg/larval mortality on sprayed insect diet in 96-well microtiter plates; details: 120 h, egg and larval mortality after 5 days, in comparison with untreated controls
Method: B.1 Tobacco budworm (Heliothis virescens)
For evaluating control of tobacco budworm (Heliothis virescens) the test unit consists of 96-well-microtiter plates containing an insect diet and 15-25 H. virescens eggs.
The compounds are formulated using a solution containing 75% v/v water and 25% v/v DMSO. Different concentrations of formulated compounds are sprayed onto the insect diet at 10µl, using a custom-built micro atomizer, at two replications.
After application, microtiter plates are incubated at about 28 ± 1°C and about 80 ± 5 % relative humidity for 5 days. Egg and larval mortality is then visually assessed.

Structure (SMILES): CC(NC(=O)c1cc(C(F)(F)F)cc(C(F)(F)F)c1)c1nccnc1C1=NNC(=O)CN1C (centres unmarked) [Compound I-1, N-(1-(3-(4-Methyl-6-oxo-1,4,5,6-tetrahydro-1,2,4-triazin-3-yl)pyrazin-2-yl)ethyl)-3,5-bis(trifluoromethyl)benzamide]
- mortality [1]: at least 75%
- mortality ([2]; 2500 ppm): at least 75%
- mortality ([3]; 2500 ppm): at least 75%
- mortality ([4]; 2500 ppm): at least 75%

Structure (SMILES): CC(NC(=O)c1cc(C(F)(F)F)cc(C(F)(F)F)c1)c1nccnc1C1=NN(C)C(=O)CO1 (centres unmarked) [Compound I-4, N-(1-(3-(4-methyl-5-oxo-5,6-dihydro-4H-1,3,4-oxadiazin-2-yl)pyrazin-2-yl)ethyl)-3,5-bis(trifluoromethyl)benzamide]
- mortality at 2500 ppm [5]: ≥ 75%
- mortality at 2500 ppm ([2]; Plutella xylostella, foliar): ≥ 75%
- mortality at 2500 ppm ([3]; Aedes aegypti, 48 h): ≥ 75%
- mortality at 2500 ppm ([4]; Myzus persicae, 72 h): ≥ 75%
